In PMC6216040, “Repurposing of an old drug: In vitro and in vivo efficacies of buparvaquone against Echinococcus multilocularis” (International Journal for Parasitology: Drugs and Drug …, 2018):
Where two headings read alike, the source gives them in different places.

System: E. multilocularis metacestodes
Experiment: PGI-assay: drug-induced damage on in vitro cultured metacestodes (Pathogen Box screening cascade and EC50)
Assay type: cell-based, Echinococcus multilocularis
Details: for cytotoxicity at 10 µM: Echinococcus multilocularis; for cytotoxicity at 10 µM / PGI release, % of the Tx-100 control, 5d / PGI release, % of the Tx-100 control, 12d: singlets, 10 µM
[1] = 120 h, 5 days of incubation, read-out: PGI release, % of the Tx-100 control, 5d
[2] = 288 h, 12 days of incubation, read-out: PGI release, % of the Tx-100 control, 12d
[3] = confirmatory screening at 10 µM in triplicates, 5 days of incubation, values as % of Tx-100 control
[4] = confirmatory screening at 10 µM in triplicates, 12 days of incubation, values as % of Tx-100 control

Row | SMILES | PGI release, % of the Tx-100 control, 5d (5 days of incubation) | PGI release, % of the Tx-100 control, 12d (12 days of incubation) | also measured
1 | C[C@H]1c2cccc(O)c2C(=O)C2=C(O)[C@]3(O)C(=O)C(C(N)=O)=C(O)[C@@H](N(C)C)[C@@H]3[C@@H](O)[C@@H]21 [MMV000011, Doxycycline, reference compound] |  |  | cytotoxicity at 10 µM [1]: 3.26%; cytotoxicity at 10 µM [2]: -0.0343%
2 | COc1cc(NC(C)CCCN)c2ncccc2c1 (stereo not drawn) [MMV000023, Primaquine, reference compound] |  |  | cytotoxicity at 10 µM [1]: -0.23%; cytotoxicity at 10 µM [2]: 17.6%
3 | CCN(CC)CCCCCCNc1cc(OC)cc2c(C)ccnc12 [MMV000063, Sitamaquine, reference compound] |  |  | cytotoxicity at 10 µM [1]: -0.0141%; cytotoxicity at 10 µM [2]: 10.8%
4 | O=S(=O)(c1ccc(Cl)cc1)N1CCN(C(=S)NCc2ccco2)CC1 [MMV000858] | -0.26% | 2.40% | 
5 | COc1cccc2c(C)nc(N=C(N)N)nc12 [MMV000907] | -2.91% | 1.72% | 
6 | CCCS(=O)(=O)N1CCC(CO)(Cc2ccccc2C(F)(F)F)CC1 [MMV001059] | 1.56% | 1.44% | 
7 | COC(=O)C1=C(C)NC(C)=C(C(=O)OC(C)C)C1c1cccc2nonc12 (stereo not drawn) [MMV001493, Isradipine, reference compound] |  |  | cytotoxicity at 10 µM [1]: 0.84%; cytotoxicity at 10 µM [2]: 0.0436%
8 | CC1CS(=O)(=O)CCN1/N=C/c1ccc([N+](=O)[O-])o1 (stereo not drawn) [MMV001499, Nifurtimox, reference compound] |  |  | cytotoxicity at 10 µM [1]: 2.54%; cytotoxicity at 10 µM [2]: 3.97%
9 | CNCCC(Oc1ccc(C(F)(F)F)cc1)c1ccccc1 (stereo not drawn) [MMV001561, Fluoxetine, reference compound] |  |  | cytotoxicity at 10 µM [1]: -1.25%; cytotoxicity at 10 µM [2]: -5.98%
10 | O=C(C1CCCCC1)N1CC(=O)N2CCc3ccccc3C2C1 (stereo not drawn) [MMV002529, Praziquantel, reference compound] |  |  | cytotoxicity at 10 µM [1]: -0.87%; cytotoxicity at 10 µM [2]: -0.49%
11 | CCN(CC)C(=O)N1CCN(C)CC1 [MMV002816, Diethylcarbamazine, reference compound] |  |  | cytotoxicity at 10 µM [1]: -0.92%; cytotoxicity at 10 µM [2]: -1.56%
12 | Oc1c(I)cc(I)c2cccnc12 [MMV002817, Diiodohydroxyquinoline, reference compound] |  |  | cytotoxicity at 10 µM [1]: -1.42%; cytotoxicity at 10 µM [2]: -0.41%
13 | CN1CCCN(C(c2ccccc2)c2ccc(Cl)cc2)CC1 (stereo not drawn) [MMV004168] | -0.40% | 76.56% | PGI release, % of Tx-100 control, average, 5d [3]: -1.18%; PGI release, % of Tx-100 control, average, 12d [4]: 4.34%
14 | O=C1Nc2ccc(Br)cc2C12NCCc1c2[nH]c2ccccc12 (stereo not drawn) [MMV006239] | 0.78% | 2.27% | 
15 | Cc1ccc2[nH]c3c(NCCN(C)C)ncnc3c2c1 [MMV006372] | 0.48% | -0.11% | 
16 | COc1cc2ncnc(NC3CCN(Cc4ccccc4)CC3)c2cc1OC [MMV006741] | -1.05% | 0.30% | 
17 | Cc1cc(Cl)c(S(=O)(=O)N2CCCC2)cc1OCC(=O)NC1CCCCC1 [MMV006833] | 0.0374% | -0.28% | 
18 | CN(C)c1cc(NC(=O)Nc2ccccc2)c2ccccc2n1 [MMV006901] | 13.97% | 19.56% | 
19 | Cc1cc(NC(=O)c2ccc(S(=O)(=O)N(Cc3ccccc3)C(C)C)cc2)no1 [MMV007133] | -0.95% | 0.46% | 
20 | COc1cc(OC)cc(C(=O)NCC2Cc3cc(Cl)cc(-c4ccncc4)c3O2)c1 (stereo not drawn) [MMV007471] | 1.94% | 7.77% | 

Row | SMILES | PGI release, % of the Tx-100 control, 5d (5 days of incubation) | PGI release, % of the Tx-100 control, 12d (12 days of incubation) | also measured
21 | Cc1cc(C)n(-c2ccc(NC(=O)C3CCN(Cc4cnc(C)s4)CC3)cc2)n1 [MMV007625] | 0.65% | 25.58% | PGI release, % of Tx-100 control, average, 5d [3]: -1.00%; PGI release, % of Tx-100 control, average, 12d [4]: -1.56%
22 | CCOc1ccc(-c2nc(NC(=O)CS(=O)(=O)c3ccccc3)sc2C)cc1 [MMV007638] | -0.28% | 0.13% | 
23 | O=C(NC1CC1)c1ccc(CSCc2ccccc2Cl)o1 [MMV007803] | -0.54% | -0.13% | 
24 | Nc1ccc(C(=O)Nc2ccc(-c3nc4ccccc4o3)cc2)cc1 [MMV007920] | 0.08% | -0.69% | 
25 | COc1ccc(CN2CCOc3ccc(C(C)(O)CN(C)C)cc3C2)cc1C (stereo not drawn) [MMV008439] | -0.31% | -1.11% | 
26 | Cc1cc(C(=O)Nc2cnn(Cc3ccc(Cl)cc3Cl)c2)no1 [MMV009054] | -0.80% | -0.25% | 
27 | O=C(C1CCN(c2nnnn2-c2ccccc2)CC1)N1CCc2ccccc2C1 [MMV009135] | -0.49% | -1.30% | 
28 | COc1ccc(-c2cnc3ccc(NCc4ccc(S(N)(=O)=O)cc4)nn23)cn1 [MMV010545] | -0.28% | -0.35% | 
29 | COc1cc(-c2cc(-c3ccc(S(C)(=O)=O)cc3)cnc2N)ccc1O [MMV010576] | -0.22% | -2.40% | 
30 | c1csc(-c2cnc3sc(NCC4CCOCC4)nn23)c1 [MMV010764] | -0.61% | -4.41% | 
31 | Cc1cc(Nc2ccc(C(F)(F)F)cc2)n2ccnc2n1 [MMV011229] | -0.86% | -1.35% | 
32 | COc1ccc(CCN2CCC(NCc3cccc(N(C)C)c3)CC2)cc1 [MMV011511] | 1.21% | 4.25% | 
33 | NCC(=O)N1CCn2c(nc(-c3ccccc3)c2Nc2ccc3c(c2)OCO3)C1 [MMV011691] | 1.25% | 2.05% | 
34 | FC(F)(F)c1cnc(Sc2nnc(-c3ccncc3)o2)c(Cl)c1 [MMV011765] | 0.33% | 0.66% | 
35 | Cc1ccc(NC(=O)c2nc[nH]c2C(=O)Nc2nc3ccccc3[nH]2)c(C)c1 [MMV011903] | 41.66% | 94.00% | PGI release, % of Tx-100 control, average, 5d (1 µM, triplicates, 5 days of incubation): -2.96%; PGI release, % of Tx-100 control, average, 12d (1 µM, triplicates, 12 days of incubation): -9.52%; activity in the screen at 10 μM (confirmed in triplicates, >20% relative PGI release) (10 μM, 5 and 12 days): active; PGI release, % of Tx-100 control, average, 5d [3]: 4.49%; PGI release, % of Tx-100 control, average, 12d [4]: 34.00%
36 | Cc1nc2ccccn2c1C(=O)NCc1ccc(Cl)cc1 [MMV012074] | 0.39% | -0.51% | 
37 | Cc1cc(Nc2ccncc2)n2nc(C)c(-c3ccccc3Cl)c2n1 [MMV016136] | 0.97% | 2.16% | 
38 | Cc1ccc(-c2cc(C(=O)Nc3cccnc3)c3cc(Br)ccc3n2)cc1 [MMV016838] | -0.19% | -0.0545% | 
39 | Cc1cc(C)n2nc(C(=O)Nc3cc(C(F)(F)F)ccc3N3CCOCC3)nc2n1 [MMV019087] | -0.91% | -0.17% | 
